Source: patent US11040052B2, “Methods and pharmaceutical compositions for modulating autophagy in a subject in need thereof” (INSERM (INSTITUT NATIONAL DE LA SANTE ET DE LA RECHERCHE …, priority 2013, dated 2021)
Entries after “also recorded” stand apart in the source; their conditions may differ.

Key:
[1] = system: TAC-induced cardiac autophagy and remodeling; experiment: In vivo model of pressure overload (thoracic aortic constriction, TAC); design: species or system mice; details: daily intra-peritoneal 300 mg/kg
Protocol: Immuno-histochemical staining of heart tissue sections was performed using the Novolink Kit (Menarini Diagnostics, RE7140-K), as previously described (Ladoire et al., 2012). Briefly, […] formalin-fixed, paraffin-embedded tissue sections were deparaffinized with 3 successive passages through xylene, and rehydrated through decreasing concentrations (100%, 95%, 80%, 70% and 50%) of ethanol. Antigen retrieval was performed by heating slides for 30 min in pH 6.0 citrate buffer at 95° C. Slides were then allowed to cool at room temperature for 45 min, mounted on Shandon Sequenza coverplates (Thermo Fisher Scientific, 72-199-50) in distilled water, and then washed twice for 5 min with 0.1% Tween 20 (v/v in PBS). Thereafter, sections were incubated for 5 min with the Peroxidase Block reagent, and subsequently washed twice for 5 min with 0.1% Tween 20 (v/v in PBS). […] Two-dimensional echocardiography was performed prior to surgery and 1 week post-surgery in non-sedated mice to quantify functional parameters using a Vevo 2100 high-resolution imaging system (Visual Sonics). […] Quantitative analysis was obtained through measurement of an average of 900 cells in each section from two (sham) or three (TAC) animals.

MCA205 cells = experiment: Labeling of vesicular ATP in vitro (quinacrine/PI); type: cell-based, murine; details: compared to MTX alone
Protocol: MCA205 cells were loaded with […] quinacrine in Krebs-Ringer solution (125 mM NaCl, 5 mM KCl, 1 mM MgSO4, 0.7 mM KH2PO4, 2 mM CaCl2), 6 mM glucose and 25 mM HEPES buffer, pH 7.4) for 30 min at 37 1C. Thereafter, cells were co-stained for 10 min with […] propidium iodide (PI) and […] Hoechst 33342 (both from Molecular Probes-Life Technologies), rinsed with Krebs-Ringer solution and analyzed by automated fluorescence microscopy.

[2] = system: CD4+CD25+Foxp3+ Tregs in tumor bed; experiment: Detection of tumor-infiltrated Tregs (flow cytometry); type: in vivo, mice; details: compared with MTX group
Protocol: Tumors were digested using Miltenyi Biotec tumor digestion kit according to manufacturer's protocol. Single cells were resuspended in RPMI 1640 and sequentially passed through 100 μm and 70 μM nylon cell strainers (BD Biosciences). Leukocytes were purified using Miltenyi Biotec magnetic beads conjugated to monoclonal anti-mouse CD45 (clone 30F11.1) according to the supplier's recommendations. Prior to staining of TIL populations for flow cytometry analysis, samples were incubated with LIVE/DEAD® Fixable Yellow Dead Cell dyes (Invitrogen) to discriminate viable cells from damaged cells. TILs were incubated with antibodies against CD16/CD32 before staining with fluorescent-labeled antibodies targeting T-cell surface markers. Then, cells were permeabilized and fixed with eBioscience Foxp3/Transcription Factor Staining Buffer Set and stained for intracellular Foxp3. Data were acquired using a MACSQuant flow cytometer (Miltenyi Biotec) and analyzed with FlowJo v. X PC software (Treestar, Oreg., USA). Tregs were defined as CD3+ CD4+ CD8− CD25+ Foxp3+ T-cell population.

[3] = system: CT26 derived tumors expressing pmeLUC; experiment: Real time in vivo imaging of ATP release; design: species or system mice; details: autophagy competent tumors, 48 hours post chemotherapy
Protocol: BALB/c mice were subcutaneously inoculated with 3×10^5 SCR or ATG5^KD CT26 clones stably expressing pmeLUC probe, and tumor growth was monitored every 2 days. When tumor became palpable (about 8 days after injection), mice were divided in four experimental groups. The first one was intraperitoneally injected with 200 µl PBS and after 48 hs from the first injection, 200 µl of PBS was injected again (control group). The second one was injected the first time with 100 mg/kg hydroxycitrate in 200 µl of PBS and 48 hs later again 100 mg/kg hydroxycitrate in 200 µl of PBS. The third one was intraperitoneally injected with 100 mg/kg hydroxycitrate in 200 µl of PBS and 48 hs later with 100 mg/kg hydroxycitrate in 200 µl of PBS and 5.17 mg/Kg MTX in 200 µl di PBS. The last group were injected the first time with 200 µl of PBS and 48 hs later with 5.17 mg/Kg MTX in 200 µl di PBS. Thereafter, mice were anesthetized and imaged with Xenogen—IVIS® Lumina II (Caliper, Hopkinton, Mass., USA). D-luciferin (150 mg/kg) was intraperitoneally administered to mice 15 minutes before acquisitions, which were performed immediately before and after 48 hrs from compound injections. The regions of interest were identified around tumor sites and in vivo luminescence was identified as photons/s using the Living ImageH software (Caliper).

Structure (SMILES)	TAC-induced cardiac autophagy [1]	TAC-induced pathological remodeling / heart failure features [1]	ATP release in vitro, combined with MTX (MCA205 cells)	Foxp3+ Tregs in tumor bed, combined with MTX [2]	extracellular ATP release in vivo, combined with MTX [3]
COC(=O)CCC(=O)C(=O)OC [DMKG, dimethyl-α-ketoglutarate]	decreased cardiac autophagy induced by thoracic aortic constriction (TAC); also recorded: inhibited the maladaptive accumulation of autophagosomes	suppressed TAC-induced pathological remodeling; also recorded: suppressed multiple features of TAC-induced heart failure	–	–	–
O=C(O)CC(O)(C(=O)O)C(O)C(=O)O (centres unmarked) [HC, hydroxycitrate]	–	–	marked increase in ATP release; also recorded: particularly efficient in inducing the autophagy-dependent release of ATP	reduces Treg infiltration in tumor bed; also recorded: particularly efficient in reducing the frequency of Foxp3^+ Tregs in tumors	significantly enhances ATP release; also recorded: higher level of extracellular ATP accumulation
